Results reported in ChEMBL document CHEMBL1201862, “PubChem BioAssay data set” (2004).
Calls of active or inactive are those of the source.

What was measured:
[1] = target: T1, Short transient receptor potential channel 4 (Mus musculus, UniProt Q9QUQ5); assay: potentiation of DAMGO-evoked TRPC4 calcium signal – cell-based, HEK293 TRPC4/mu-opioid, Fluo-4 calcium, EC20 DAMGO, dose response (AID 434941); assay type: functional
T1 sequence (Q9QUQ5 whole entry): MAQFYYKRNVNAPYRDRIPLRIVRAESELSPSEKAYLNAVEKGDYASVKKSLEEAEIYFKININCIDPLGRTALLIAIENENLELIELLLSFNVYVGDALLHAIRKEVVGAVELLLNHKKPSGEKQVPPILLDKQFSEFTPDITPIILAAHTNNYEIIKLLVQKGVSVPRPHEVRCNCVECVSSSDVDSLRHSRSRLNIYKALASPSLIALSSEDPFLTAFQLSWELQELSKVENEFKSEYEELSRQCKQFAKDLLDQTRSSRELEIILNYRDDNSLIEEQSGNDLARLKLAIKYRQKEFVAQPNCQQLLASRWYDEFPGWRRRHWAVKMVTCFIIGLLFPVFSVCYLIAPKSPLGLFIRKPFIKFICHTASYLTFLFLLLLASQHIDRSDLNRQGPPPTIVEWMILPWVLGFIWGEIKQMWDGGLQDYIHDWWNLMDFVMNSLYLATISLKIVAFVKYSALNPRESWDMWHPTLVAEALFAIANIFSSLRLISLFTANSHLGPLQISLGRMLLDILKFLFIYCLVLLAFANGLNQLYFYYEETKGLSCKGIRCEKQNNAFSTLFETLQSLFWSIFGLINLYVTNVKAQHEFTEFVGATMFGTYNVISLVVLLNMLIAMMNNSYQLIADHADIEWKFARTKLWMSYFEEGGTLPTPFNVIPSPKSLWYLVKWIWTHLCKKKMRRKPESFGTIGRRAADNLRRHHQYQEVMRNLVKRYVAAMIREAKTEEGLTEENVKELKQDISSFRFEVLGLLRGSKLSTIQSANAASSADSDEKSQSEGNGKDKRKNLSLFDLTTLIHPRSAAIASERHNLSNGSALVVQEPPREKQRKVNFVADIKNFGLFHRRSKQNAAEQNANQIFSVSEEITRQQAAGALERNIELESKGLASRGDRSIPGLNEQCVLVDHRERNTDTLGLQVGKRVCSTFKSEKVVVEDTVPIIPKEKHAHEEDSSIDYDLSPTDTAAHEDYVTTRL

[2] = A Cell Based Secondary Assay To Explore Cytotoxicity of Compounds that Sensitize Mycobacterium Tuberculosis to Beta-Lactam Antibiotics.; assay type: functional
Trypsin = Trypsin (Sus scrofa, UniProt P00761); assay: trypsin protease activity blockade – biochemical, quenched peptide fluorescence, cherry-pick, selectivity assay for Rce1 protease inhibitor project, dose response (AID 488789)
Chain of Trypsin (P00761 whole entry): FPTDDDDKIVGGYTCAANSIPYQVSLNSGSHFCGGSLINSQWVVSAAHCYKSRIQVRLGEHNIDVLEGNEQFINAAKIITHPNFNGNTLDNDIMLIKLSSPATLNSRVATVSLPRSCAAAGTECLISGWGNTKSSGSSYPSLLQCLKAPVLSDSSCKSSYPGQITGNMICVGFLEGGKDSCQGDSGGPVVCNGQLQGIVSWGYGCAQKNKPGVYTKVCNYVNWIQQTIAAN

CAAX prenyl protease 2 = CAAX prenyl protease 2 (Saccharomyces cerevisiae S288c, UniProt Q03530); assay type: biochemical
Chain of CAAX prenyl protease 2 (Q03530 whole entry): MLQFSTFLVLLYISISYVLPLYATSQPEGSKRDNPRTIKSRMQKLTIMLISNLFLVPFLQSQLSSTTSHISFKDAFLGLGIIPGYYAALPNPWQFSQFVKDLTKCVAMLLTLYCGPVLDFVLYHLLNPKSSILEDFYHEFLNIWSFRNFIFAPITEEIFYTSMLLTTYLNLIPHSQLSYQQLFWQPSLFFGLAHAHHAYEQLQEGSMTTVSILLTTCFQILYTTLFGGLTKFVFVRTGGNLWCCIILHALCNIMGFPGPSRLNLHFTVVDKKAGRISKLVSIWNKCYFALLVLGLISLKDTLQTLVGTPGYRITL

cells = assay type: functional
fMet-Leu-Phe receptor = target: T2, fMet-Leu-Phe receptor (Homo sapiens, UniProt P21462); assay: formyl peptide receptor binders – dose response (AID 519); assay type: functional
T2 sequence (P21462 whole entry): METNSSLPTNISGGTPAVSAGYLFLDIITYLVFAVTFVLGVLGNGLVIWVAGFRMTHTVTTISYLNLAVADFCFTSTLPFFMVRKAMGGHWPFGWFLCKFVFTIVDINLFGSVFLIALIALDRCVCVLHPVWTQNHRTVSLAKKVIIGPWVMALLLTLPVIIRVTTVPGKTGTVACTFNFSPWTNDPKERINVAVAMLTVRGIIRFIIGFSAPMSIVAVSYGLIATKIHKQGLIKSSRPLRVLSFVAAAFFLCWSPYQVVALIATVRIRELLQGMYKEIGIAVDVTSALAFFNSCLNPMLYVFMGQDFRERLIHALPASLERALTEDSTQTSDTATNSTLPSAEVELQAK

[3] = target: DNA dC->dU-editing enzyme APOBEC-3G (Homo sapiens, UniProt Q9HC16); assay type: functional;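 note: Dose-response counterscreen measuring inhibition of APOBEC3G DNA deaminase activity, run while confirming APOBEC3A inhibitors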
Chain of DNA dC->dU-editing enzyme APOBEC-3G (Q9HC16 whole entry): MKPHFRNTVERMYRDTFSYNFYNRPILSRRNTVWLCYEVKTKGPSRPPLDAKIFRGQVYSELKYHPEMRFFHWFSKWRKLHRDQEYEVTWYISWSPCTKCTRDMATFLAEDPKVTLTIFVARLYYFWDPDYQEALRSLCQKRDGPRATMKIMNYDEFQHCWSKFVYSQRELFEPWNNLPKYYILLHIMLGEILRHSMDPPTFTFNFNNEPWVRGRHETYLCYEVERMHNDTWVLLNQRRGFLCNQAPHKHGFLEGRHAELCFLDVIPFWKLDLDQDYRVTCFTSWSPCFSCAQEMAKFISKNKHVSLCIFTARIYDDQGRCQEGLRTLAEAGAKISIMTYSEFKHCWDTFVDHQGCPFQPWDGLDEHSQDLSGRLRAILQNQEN

[4] = target: Eukaryotic translation initiation factor 4E (Mus musculus, UniProt P63073); assay: blockers of eIF4G binding by eIF4E – biochemical, TR-FRET, dose response (AID 855); assay type: functional;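 note: potency for disrupting eIF4E binding to eIF4GI seen as loss of FRET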
Chain of Eukaryotic translation initiation factor 4E (P63073 whole entry): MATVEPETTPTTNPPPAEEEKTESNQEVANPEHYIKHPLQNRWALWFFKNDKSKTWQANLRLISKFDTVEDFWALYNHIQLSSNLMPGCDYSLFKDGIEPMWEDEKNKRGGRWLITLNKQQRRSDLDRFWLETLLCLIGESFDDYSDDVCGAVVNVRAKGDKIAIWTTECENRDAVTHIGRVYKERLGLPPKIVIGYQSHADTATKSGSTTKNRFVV

[5] = target: DNA dC->dU-editing enzyme APOBEC-3A (Homo sapiens, UniProt P31941); assay: Dose Response confirmation of small molecule APOBEC3A DNA Deaminase Inhibitors via a fluorescence-based single-stranded DNA deaminase assay. [Related pubchem assays (depositor defined):AID493011, AID493024]; assay type: functional
Chain of DNA dC->dU-editing enzyme APOBEC-3A (P31941 whole entry): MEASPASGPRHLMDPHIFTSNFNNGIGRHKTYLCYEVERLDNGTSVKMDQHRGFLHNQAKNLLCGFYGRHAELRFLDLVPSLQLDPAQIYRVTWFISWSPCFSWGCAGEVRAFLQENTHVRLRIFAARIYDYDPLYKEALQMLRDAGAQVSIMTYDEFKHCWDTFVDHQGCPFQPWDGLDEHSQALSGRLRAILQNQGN

[6] = target: G-protein coupled receptor 35 (Homo sapiens, UniProt Q9HC97); assay: inhibition of zaprinast-stimulated GPR35 beta-arrestin translocation – imaging, U2OS, beta-arrestin-GFP, zaprinast agonist, primary screen (AID 2058); assay type: functional;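 note: antagonist potency meaning inhibition of agonist-induced arrestin redistribution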
Chain of G-protein coupled receptor 35 (Q9HC97 whole entry): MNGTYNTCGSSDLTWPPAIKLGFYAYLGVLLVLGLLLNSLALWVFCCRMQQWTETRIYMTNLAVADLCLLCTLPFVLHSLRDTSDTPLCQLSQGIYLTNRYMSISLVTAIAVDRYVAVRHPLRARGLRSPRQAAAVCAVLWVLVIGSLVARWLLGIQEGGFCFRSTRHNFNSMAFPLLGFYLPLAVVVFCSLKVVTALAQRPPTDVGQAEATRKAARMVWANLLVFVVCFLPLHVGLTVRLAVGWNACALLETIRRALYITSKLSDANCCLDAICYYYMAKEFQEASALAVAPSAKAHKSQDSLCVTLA

[7] = target: T3, Endoribonuclease toxin MazF (Escherichia coli K-12, UniProt P0AE70); assay: substrate-only fluorescence increase artefacts – biochemical, single-stranded RNase substrate, counter-screen for MazEF activator project, dose response (AID 588502); assay type: functional
T3 sequence (P0AE70 whole entry): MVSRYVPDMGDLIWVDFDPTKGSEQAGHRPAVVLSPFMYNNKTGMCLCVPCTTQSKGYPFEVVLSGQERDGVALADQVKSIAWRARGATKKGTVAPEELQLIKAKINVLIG

Nonstructural protein 1 = Nonstructural protein 1 (Influenza A virus, UniProt Q194T2); assay type: functional, Influenza A virus (A/California/07/2009(H1N1))
Chain of Nonstructural protein 1 (Q194T2 whole entry): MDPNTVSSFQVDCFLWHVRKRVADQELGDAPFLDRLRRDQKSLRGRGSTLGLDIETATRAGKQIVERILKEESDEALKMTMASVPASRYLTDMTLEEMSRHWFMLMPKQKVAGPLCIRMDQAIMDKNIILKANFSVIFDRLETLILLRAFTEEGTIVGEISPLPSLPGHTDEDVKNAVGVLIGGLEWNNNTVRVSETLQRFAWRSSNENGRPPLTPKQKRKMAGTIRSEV

[8] = target: G-protein coupled receptor 55 (Homo sapiens, UniProt Q9Y2T6); assay: inhibition of LPI-stimulated GPR55 beta-arrestin translocation – imaging, U2OS, beta-arrestin-GFP, LPI agonist, primary screen (AID 2013); assay type: functional;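 note: antagonist potency measured as reduced agonist-driven arrestin aggregation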
Chain of G-protein coupled receptor 55 (Q9Y2T6 whole entry): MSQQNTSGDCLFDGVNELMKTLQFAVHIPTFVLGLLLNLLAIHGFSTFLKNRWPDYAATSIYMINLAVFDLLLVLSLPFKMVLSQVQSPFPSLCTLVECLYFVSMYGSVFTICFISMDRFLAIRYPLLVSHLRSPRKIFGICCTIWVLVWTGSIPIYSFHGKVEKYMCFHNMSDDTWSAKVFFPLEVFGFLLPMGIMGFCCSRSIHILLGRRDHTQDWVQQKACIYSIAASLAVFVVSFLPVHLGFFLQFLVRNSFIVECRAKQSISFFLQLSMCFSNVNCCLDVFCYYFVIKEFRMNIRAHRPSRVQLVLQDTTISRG

[9] = target: T3, Endoribonuclease toxin MazF; assay: activation of MazEF endoribonuclease cleavage – biochemical, fluorescence, single-stranded RNA substrate, uHTS hits, dose response (AID 588481); assay type: functional
Large T antigen = Large T antigen (Simian virus 40, UniProt P03070); assay type: functional, Betapolyomavirus macacae;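 note: Confirmatory-stage PubChem screen for compounds that inhibit SV40 T antigen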
Chain of Large T antigen (P03070 whole entry): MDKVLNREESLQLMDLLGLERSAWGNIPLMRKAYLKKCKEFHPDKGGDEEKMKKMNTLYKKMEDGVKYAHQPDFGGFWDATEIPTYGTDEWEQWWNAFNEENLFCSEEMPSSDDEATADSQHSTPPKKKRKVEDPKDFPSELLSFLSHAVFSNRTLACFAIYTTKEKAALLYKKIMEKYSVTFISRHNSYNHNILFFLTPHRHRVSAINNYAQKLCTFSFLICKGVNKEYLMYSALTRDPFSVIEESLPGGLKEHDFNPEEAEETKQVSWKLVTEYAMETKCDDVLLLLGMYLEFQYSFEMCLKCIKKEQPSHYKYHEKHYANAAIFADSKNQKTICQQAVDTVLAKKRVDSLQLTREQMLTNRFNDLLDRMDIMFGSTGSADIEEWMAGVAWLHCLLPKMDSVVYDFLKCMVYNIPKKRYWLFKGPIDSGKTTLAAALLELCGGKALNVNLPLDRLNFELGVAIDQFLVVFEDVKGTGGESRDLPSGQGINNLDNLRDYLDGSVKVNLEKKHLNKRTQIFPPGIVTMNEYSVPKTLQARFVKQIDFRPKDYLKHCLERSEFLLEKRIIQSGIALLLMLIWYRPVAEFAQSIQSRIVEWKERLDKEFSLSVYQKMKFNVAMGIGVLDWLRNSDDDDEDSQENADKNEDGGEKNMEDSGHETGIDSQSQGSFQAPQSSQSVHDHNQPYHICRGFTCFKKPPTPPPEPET

[10] = target: Delta-type opioid receptor (Homo sapiens, UniProt P41143); assay: SAR Analysis of Agonists of the DOR Receptor using an Image-Based Assay - Set 3. [Related pubchem assays (depositor defined):AID1777, AID1786]; assay type: functional
Chain of Delta-type opioid receptor (P41143 whole entry): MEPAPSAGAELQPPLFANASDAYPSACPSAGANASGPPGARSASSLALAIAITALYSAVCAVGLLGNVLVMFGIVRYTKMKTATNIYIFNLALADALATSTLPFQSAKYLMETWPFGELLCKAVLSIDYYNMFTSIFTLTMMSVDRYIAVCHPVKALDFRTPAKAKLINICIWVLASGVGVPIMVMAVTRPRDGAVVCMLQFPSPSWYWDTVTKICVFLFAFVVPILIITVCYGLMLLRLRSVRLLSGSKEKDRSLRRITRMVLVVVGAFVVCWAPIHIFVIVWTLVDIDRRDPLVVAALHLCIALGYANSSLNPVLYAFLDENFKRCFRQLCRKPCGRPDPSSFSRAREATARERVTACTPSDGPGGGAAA

[11] = target: T4, Kappa-type opioid receptor (Homo sapiens, UniProt P41145); assay: kappa opioid receptor activation by imaging – image-based, set 3, SAR follow-up (AID 488833); assay type: functional
T4 sequence (P41145 whole entry): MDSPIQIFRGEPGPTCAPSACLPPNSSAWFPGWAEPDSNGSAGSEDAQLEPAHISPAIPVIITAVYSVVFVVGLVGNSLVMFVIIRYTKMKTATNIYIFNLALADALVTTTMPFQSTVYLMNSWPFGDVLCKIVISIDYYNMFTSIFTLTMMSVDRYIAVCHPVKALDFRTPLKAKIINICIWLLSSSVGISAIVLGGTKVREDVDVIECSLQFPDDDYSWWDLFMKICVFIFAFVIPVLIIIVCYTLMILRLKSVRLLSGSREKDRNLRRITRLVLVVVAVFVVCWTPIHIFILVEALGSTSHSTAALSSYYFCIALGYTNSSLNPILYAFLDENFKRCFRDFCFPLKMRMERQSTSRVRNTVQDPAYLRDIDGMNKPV

[12] = target: T4, Kappa-type opioid receptor; assay: SAR analysis of small molecule agonists of the kappa opioid receptor via a luminescent beta-arrestin assay - Set 3. [Related pubchem assays (depositor defined):AID1777, AID1785, AID1786, AID1966, AID2133, AID2136, AID2284, AID2500]; assay type: functional
Mu-type opioid receptor = Mu-type opioid receptor (Homo sapiens, UniProt P35372); assay: SAR Analysis of Agonists of the MOR Receptor using an Image-Based Assay - Set 3. [Related pubchem assays (depositor defined):AID1777, AID1785, AID1786, AID1966, AID2133, AID2136, AID2284, AID2285, AID2352]; assay type: functional
Chain of Mu-type opioid receptor (P35372 whole entry): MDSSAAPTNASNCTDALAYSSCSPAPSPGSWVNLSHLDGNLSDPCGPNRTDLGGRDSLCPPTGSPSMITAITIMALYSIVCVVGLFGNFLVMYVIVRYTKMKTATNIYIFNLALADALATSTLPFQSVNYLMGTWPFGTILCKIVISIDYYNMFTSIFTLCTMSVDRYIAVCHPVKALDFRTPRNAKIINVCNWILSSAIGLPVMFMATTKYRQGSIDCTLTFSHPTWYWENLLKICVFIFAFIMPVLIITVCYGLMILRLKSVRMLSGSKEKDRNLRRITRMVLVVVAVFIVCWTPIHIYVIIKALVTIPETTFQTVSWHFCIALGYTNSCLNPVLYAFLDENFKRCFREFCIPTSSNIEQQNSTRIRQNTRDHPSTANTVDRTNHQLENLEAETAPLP

[13] = target: T5, Tyrosine-protein phosphatase non-receptor type 7 (Homo sapiens, UniProt P35236); assay: redox-active compounds inhibiting HePTP phosphatase – biochemical, fluorescence, mechanism study (AID 2068); assay type: functional
T5 sequence (P35236 whole entry): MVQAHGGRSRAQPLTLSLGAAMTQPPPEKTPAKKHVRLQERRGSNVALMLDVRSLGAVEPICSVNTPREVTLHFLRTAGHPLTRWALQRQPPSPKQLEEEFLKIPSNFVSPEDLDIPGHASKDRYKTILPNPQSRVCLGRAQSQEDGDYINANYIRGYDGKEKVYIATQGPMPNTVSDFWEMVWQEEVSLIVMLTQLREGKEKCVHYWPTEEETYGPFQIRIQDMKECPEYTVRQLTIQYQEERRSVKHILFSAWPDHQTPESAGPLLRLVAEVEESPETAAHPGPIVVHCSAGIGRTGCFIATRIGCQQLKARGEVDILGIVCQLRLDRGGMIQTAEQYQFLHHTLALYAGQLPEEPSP

[14] = target: T6, Dual specificity protein phosphatase 6 (Rattus norvegicus, UniProt Q64346); assay type: functional;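 note: confirmatory in vitro dose-response testing of MKP-3 inhibition; recombinant His-tagged MKP-3 made in E. coli BL21 with OMFP substrate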
T6 sequence (Q64346 whole entry): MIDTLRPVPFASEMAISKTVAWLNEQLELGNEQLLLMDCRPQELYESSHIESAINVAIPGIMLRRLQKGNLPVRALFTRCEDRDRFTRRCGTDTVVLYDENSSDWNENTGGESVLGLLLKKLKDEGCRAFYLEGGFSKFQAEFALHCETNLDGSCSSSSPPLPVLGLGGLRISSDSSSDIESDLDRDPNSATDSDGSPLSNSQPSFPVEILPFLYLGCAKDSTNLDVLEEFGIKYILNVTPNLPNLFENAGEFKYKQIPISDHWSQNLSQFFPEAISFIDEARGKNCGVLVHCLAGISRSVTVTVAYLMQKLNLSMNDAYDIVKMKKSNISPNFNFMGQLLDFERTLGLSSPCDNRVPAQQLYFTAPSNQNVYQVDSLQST

## CCN1CCN(Cc2cc(Br)ccc2O)CC1
[1]
  EC50: 0.21 µM (active)

## Cc1cccc(Cn2c(N3CCN(c4ccccc4)CC3)nc3c2c(=O)n(C)c(=O)n3C)c1
[2]
  CC50: > 40 µM (active)
[1]
  EC50: 0.84 µM (active)

## CCCc1cc(O)n2nc(C)c(-c3ccccc3)c2n1
Trypsin
  AC50: 5.36 µM (active)
CAAX prenyl protease 2
  AC50: 22.3 µM (active)
cells
  IC50: 46.5 µM (active)
fMet-Leu-Phe receptor
  Ki: > 66.7 µM (inactive)

## COc1ccc2cc(C(=O)C3CCCN(C(=O)CCc4cnn(C)c4)C3)ccc2c1 (stereo not drawn)
Trypsin
  AC50: 11.5 µM (active)
CAAX prenyl protease 2
  AC50: 19.5 µM (active)

## O=C(C[n+]1c2n(c3ccc(C(F)(F)F)cc31)CCCCC2)Nc1ccccc1
[3]
  IC50: 3.79 µM (active)
[4]
  IC50: > 64 µM (inactive)
[5]
  IC50: 2.76 µM (active)

## CN(C)/C=C/C=C/C=C/C1=[N+](C)c2ccccc2C1(C)C
[6]
  IC50: 1.82 µM (active)
[7]
  EC50: 89.5 µM (inactive)
Nonstructural protein 1
  IC50: 5.75 µM (active)
[8]
  IC50: 2.05 µM (active)
[9]
  EC50: > 99 µM (inactive)
Large T antigen
  IC50: 27.8 µM (active)

## Cc1ccccc1CSc1nnc(-c2ccccn2)n1Cc1ccco1
[10]
  EC50: > 64 µM (inactive)
[11]
  EC50: 28.7 µM (inactive)
[12]
  EC50: 17.7 µM (inactive)
Mu-type opioid receptor
  EC50: > 32 µM (inactive)

## CCN1CCN(C(=S)c2ccc(O)c(OC)c2)CC1
[13]
  IC50: 74.5 µM (active)
[14]
  IC50: > 100 µM (inactive)

## Cc1c(CSc2nnc(-c3ccccn3)n2Cc2cccs2)cccc1[N+](=O)[O-]
[10]
  EC50: > 32 µM (inactive)
[11]
  EC50: 4.15 µM (active)
[12]
  EC50: 5.82 µM (active)
Mu-type opioid receptor
  EC50: > 32 µM (inactive)
